For 19 molecules, EC50 results are on record in US11230526B1, “Cylcoalkenyl derivatives useful as agonists of the GPR120 and/or GPR40 receptors” (Janssen Pharmaceutica NV, priority 2018, dated 2022).

Structures are written as SMILES. A value given as a limit tells only on which side of the number the result lay.

Common to all, as to format: cell-based
In one test the target is T1, Human GPR120 short form (Homo sapiens, UniProt Q5NUL3).
T1 construct: expressed in transfected cells
T1 sequence (Q5NUL3 1-361): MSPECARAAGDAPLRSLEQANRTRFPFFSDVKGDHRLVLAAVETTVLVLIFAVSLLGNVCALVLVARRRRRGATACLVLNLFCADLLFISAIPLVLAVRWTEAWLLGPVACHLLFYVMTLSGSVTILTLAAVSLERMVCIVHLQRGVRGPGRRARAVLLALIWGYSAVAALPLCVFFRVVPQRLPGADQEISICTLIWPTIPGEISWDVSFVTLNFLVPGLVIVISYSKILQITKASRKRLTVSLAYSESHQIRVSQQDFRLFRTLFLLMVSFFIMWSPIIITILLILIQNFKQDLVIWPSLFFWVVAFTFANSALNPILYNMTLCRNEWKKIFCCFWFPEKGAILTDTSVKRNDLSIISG
Nature of the test: Human GPR120 calcium flux assay, Procedure Calcium B (4200 cells/well). The gist of the method: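 HEK293 cells stably expressing human GPR120 (NM_001195755.1), 4200 cells/well, starved 1 h and loaded with Fluo-4 NW plus probenecid. Ligand-evoked calcium flux read on FLIPR for 300 s after a 10 s baseline. RFU = Fmax−Fmin; EC50 from four-parameter concentration-response fit.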
Background: Calcium assays in cells follow changes in intracellular calcium, usually with a dye or a luminescent sensor.

Test [1] deals with T2, long form of human GPR120 (Homo sapiens, UniProt Q5NUL3).
T2 construct: host or cells: PathHunter CHO-K1 GPR120 β-Arrestin Cell Line
The experiment in a line: Human GPR120 DiscoveRx PathHunter Beta-Arrestin assay, Procedure β-arrestin A. The source says:
Human GPR120 DiscoveRx PathHunter® Beta-Arrestin Assay Assay Principle:
The binding of an agonist (medium/long chain fatty acids or small molecule agonists) to the G-protein-coupled receptor GPR120 activates phospholipase C, leading to release of intracellular Ca^+2 through the generation of inositol 1,4,5-trisphosphate (InsP3 or IP3). GPR120 activation can also trigger intracellular signaling via recruitment of Beta-Arrestin. In the present method, agonist-induced activation of the human GPR120 receptor is monitored through the use of PathHunter® CHO-K1 GPR120 Beta-Arrestin Cell Line engineered by DiscoveRx, as detailed below. The cell lines are designed to co-express both the ProLink/Enzyme Donor (PK)-tagged GPCR and the Enzyme […] (EA)-tagged Beta-Arrestin fusion proteins. Upon GPR120 receptor stimulation/activation, the EA-tagged Beta-Arrestin portion is translocated to the tagged receptor, where the two enzyme fragments are brought within close proximity. Under these conditions, these fragments can interact and form an active Beta-gal enzyme complex through Enzyme Fragment Complementation (EFC). This active Beta-gal complex can enzymatically hydrolyse the substrate to produce a detectable light signal; therefore, activation as a function of agonist concentration can be expressed as an EC50 value to determine relative compound activities. This in vitro assay therefore serves to assess compound agonist activity of the GPR120.
In Procedure β-arrestin A, the cell used were PathHunter® CHO-K1 GPR120 β-Arrestin Cell Line, expressing the long form of human GPR120 (Genbank accession number NM_181745), with 3000 cells per well.
The selected CHO-K1 GPR120 β-Arrestin cells were cultured in Ham's F12 media supplemented with 10% fetal bovine serum (FBS), 1% Glutamine, 1×p/s, 800 μg/mL G418 and 300 μg/mL Hygromycin B (for selection). Cell stocks were maintained and grown in a sub-confluent state using standard cell culture procedures. The day before the experiment, the cells were harvested with non-enzymatic cell dissociation buffer and re-suspended in complete growth media at the desired concentration. A Corning 384-plate was then seeded with the proper number of cells in a volume of 25 μL, per well. The seeded plates were incubated overnight at 37° C.
On the day of the experiment, the Assay Buffer containing (a) HBSS with Ca^++ and Mg^++, (b) 20 mM HEPES, and (c) 0.1% BSA stabilizer (pH 7.4) was prepared. The growth medium was gently removed from the cell plates and 20 μL of Assay Buffer added to each well. The plate was then incubated at 37° C. for 60 min. Test compounds were serially diluted in Assay Buffer to desired concentrations (more particularly to one or more of the following μM concentrations: 25, 12.5, 6.25, 3.12, 1.56, 0.78, 0.39, 0.19, 0.10, 0.05, 0.02, 0.01). Five μL of compound dilution was then added to each well and the plate incubated at 37° C. for 90 min. The detection reagents were prepared according to the manufacture's instruction. Twelve μL of the detection reagents were added to each well and the plate incubated at room temperature for 60 min.
The plates were read on an EnVision instrument, using Protocol name: Luminescence, Plate type: 384 Costar, Measurement height: 3 mm, Measurement time: 1 s, Aperture: 384 Plate aperture. The % Activity relative to the positive control was calculated using the following equation:
The % Activity values were plotted versus the concentration of test compound and fitted to a sigmoidal dose-response curve with a Hill slope=1 (fixed value) using nonlinear regression with GraphPad Prism 5.0 to calculate the EC50 values. The Fitting Equation was: Y=Bottom+(Top-Bottom)/(1+10^((Log EC50−X)*HillSlope)), where X is the log of the concentration and Y is the response.

The next test addresses T3, human GPR40 (Homo sapiens, UniProt O14842).
T3 construct: expressed in transfected cells
Nature of the test: GPR40 calcium flux assay, human GPR40. The conditions noted are these: HEK293 cells stably expressing GPR40; table does not say human or rat. In outline:
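Cells preincubated 1 h at 37° C. in HBSS, 20 mM HEPES, 0.1% BSA, then Fluo 8 calcium dye 30 min at 37° C. and 15 min at room temperature.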

T3 sequence (O14842 whole entry): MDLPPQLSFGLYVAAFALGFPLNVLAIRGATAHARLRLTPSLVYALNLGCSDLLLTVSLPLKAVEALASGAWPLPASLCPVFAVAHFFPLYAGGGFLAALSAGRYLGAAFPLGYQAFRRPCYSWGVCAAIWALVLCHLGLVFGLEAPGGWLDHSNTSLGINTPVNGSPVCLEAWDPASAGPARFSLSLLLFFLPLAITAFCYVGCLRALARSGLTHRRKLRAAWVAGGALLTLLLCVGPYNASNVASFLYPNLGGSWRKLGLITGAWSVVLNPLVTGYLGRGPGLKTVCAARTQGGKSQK
T2 sequence (Q5NUL3 1-377 isoform Q5NUL3-1): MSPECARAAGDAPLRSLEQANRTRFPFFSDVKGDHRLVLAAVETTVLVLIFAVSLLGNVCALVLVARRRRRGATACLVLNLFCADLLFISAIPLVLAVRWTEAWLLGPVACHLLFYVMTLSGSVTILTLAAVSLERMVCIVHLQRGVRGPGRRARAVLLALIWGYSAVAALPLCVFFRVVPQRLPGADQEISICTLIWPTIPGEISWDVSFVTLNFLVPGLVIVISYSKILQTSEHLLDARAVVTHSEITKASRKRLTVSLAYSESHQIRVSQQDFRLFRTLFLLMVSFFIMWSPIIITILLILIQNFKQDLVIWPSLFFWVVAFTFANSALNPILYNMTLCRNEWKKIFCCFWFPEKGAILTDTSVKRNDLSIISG
T2 sequence (P32121 whole entry partner): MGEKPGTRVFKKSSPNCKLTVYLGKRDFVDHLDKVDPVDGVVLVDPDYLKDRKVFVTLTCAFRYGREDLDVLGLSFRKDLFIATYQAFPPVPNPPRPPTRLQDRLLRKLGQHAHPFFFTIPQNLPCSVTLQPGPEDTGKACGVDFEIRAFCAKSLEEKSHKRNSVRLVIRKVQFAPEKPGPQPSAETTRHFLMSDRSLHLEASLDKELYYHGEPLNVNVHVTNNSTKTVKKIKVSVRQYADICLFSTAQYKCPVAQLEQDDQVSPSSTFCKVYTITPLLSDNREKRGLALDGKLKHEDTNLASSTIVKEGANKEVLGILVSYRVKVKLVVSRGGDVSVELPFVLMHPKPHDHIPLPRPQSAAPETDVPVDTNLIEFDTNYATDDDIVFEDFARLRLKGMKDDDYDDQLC

As usually defined, the EC50 is the concentration needed to bring the measured effect to its halfway point. Turning to `Cc1cc(CC(C)C(=O)O)ccc1OCC1=C(c2ccc(F)cc2)CCC1` (stereo not drawn) [Compound 160, 3-[4-[[2-(4-fluorophenyl)cyclopenten-1-yl]methoxy]-3-methyl-phenyl]-2-methyl-Propanoic Acid], the results for the concentration giving a half-maximal response (EC50) (on Human GPR120 short form; in test [1]; at human GPR40) were 215 nM, 528 nM and more than 5 µM, respectively.
The matching figures for `Cc1cc(CC(C)C(=O)O)ccc1OCC1=C(c2ccc(Cl)cc2)CCC1` (stereo not drawn) [Compound 36, 3-[4-[[2-(4-chlorophenyl)cyclopenten-1-yl]methoxy]-3-methyl-phenyl]-2-methyl-Propanoic Acid]: 193 nM, 235 nM and more than 5 µM.
In the case of `Cc1cc(OCC2=C(c3ccc(Cl)cc3)CCC(F)(F)C2)ccc1CCC(=O)O` [Compound 519, 3-[4-[[2-(4-chlorophenyl)-5,5-difluoro-cyclohexen-1-yl]methoxy]-2-methyl-phenyl]Propanoic Acid], the EC50 on Human GPR120 short form came out at 222 nM; in test [1], 772 nM; at human GPR40, 3.31 µM.
Turning to `O=C(O)CCc1ccc(OCC2=C(c3ccc(Cl)cc3)CCC2)cc1OC(F)(F)F` [Compound 96, 3-[4-[[2-(4-chlorophenyl)cyclopenten-1-yl]methoxy]-2-(trifluoromethoxy)phenyl]Propanoic Acid], the EC50 was determined as 875 nM on Human GPR120 short form, 981 nM in test [1] and 1.78 µM on human GPR40.
As to `Cc1ccc(C2=C(COc3ccc(CCC(=O)O)cc3C)CC(F)(F)CC2)cc1F` [Compound 530, 3-[4-[[5,5-difluoro-2-(3-fluoro-4-methyl-phenyl)cyclohexen-1-yl]methoxy]-3-methyl-phenyl]Propanoic Acid], the figures for the concentration for a half-maximal effect (EC50) (at Human GPR120 short form; in test [1]; at human GPR40) were 68 nM, 73 nM and more than 5 µM, respectively.
The matching figures for `Cc1cc(CCC(=O)O)ccc1OCC1=C(c2ccc(F)cc2)CCC(F)(F)C1` [Compound 498, 3-[4-[[5,5-difluoro-2-(4-fluorophenyl)cyclohexen-1-yl]methoxy]-3-methyl-phenyl]Propanoic Acid]: 96 nM, 219 nM and more than 5 µM.
In the same order, the values of `Cc1cc(CCC(=O)O)ccc1OCC1=C(c2ccc(F)c(F)c2)CCC(F)(F)C1` [Compound 532, 3-[4-[[2-(3,4-difluorophenyl)-5,5-difluoro-cyclohexen-1-yl]methoxy]-3-methyl-phenyl]Propanoic Acid] are 133 nM, 187 nM and more than 5 µM.
As to `N#Cc1ccc(C2=C(COc3c(F)cc(CCC(=O)O)cc3F)CC(F)(F)CC2)s1` [Compound 572, 3-[4-[[2-(5-cyano-2-thienyl)-5,5-difluoro-cyclohexen-1-yl]methoxy]-3,5-difluoro-phenyl]Propanoic Acid], the results for the EC50 (at Human GPR120 short form; in test [1]; at human GPR40) were 641 nM, 1010 nM and more than 5 µM, respectively.
In the case of `Cc1c(CCC(=O)O)ccc(OCC2=C(c3ccc(F)cc3F)CCC(F)(F)C2)c1C` [Compound 534, 3-[4-[[2-(2,4-difluorophenyl)-5,5-difluoro-cyclohexen-1-yl]methoxy]-2,3-dimethyl-phenyl]Propanoic Acid], the results for the EC50 (on Human GPR120 short form; in test [1]; on human GPR40) were 96 nM, 157 nM and more than 5 µM, respectively.
`O=C(O)CCc1cc(F)c(OCC2=C(c3ccc(F)cc3)CC(F)(F)C2)c(F)c1` [Compound 183, 3-[4-[[4,4-difluoro-2-(4-fluorophenyl)cyclopenten-1-yl]methoxy]-3,5-difluoro-phenyl]Propanoic Acid]: the EC50 on Human GPR120 short form was 51 nM; in test [1], 185 nM; at human GPR40, more than 5 µM.
The matching figures for `Cc1ncc(C2=C(COc3ccc(CCC(=O)O)cc3C)CC(F)(F)CC2)s1` [Compound 550, 3-[4-[[5,5-difluoro-2-(2-methylthiazol-5-yl)cyclohexen-1-yl]methoxy]-3-methyl-phenyl]Propanoic Acid]: 482 nM, 437 nM and 0.642 µM.
For `Cc1c(CCC(=O)O)ccc(OCC2=C(c3ccco3)CCC2)c1C` [Compound 210, 3-[4-[[2-(2-furyl)cyclopenten-1-yl]methoxy]-2,3-dimethyl-phenyl]Propanoic Acid], the EC50 at Human GPR120 short form is 137 nM; in test [1] it was 110 nM; at human GPR40 it was more than 5 µM.
The matching figures for `O=C(O)CCc1ccc(OCC2=C(c3ccc(F)cc3)CC(F)(F)C2)c(Cl)c1` [Compound 203, 3-[3-chloro-4-[[4,4-difluoro-2-(4-fluorophenyl)cyclopenten-1-yl]methoxy]phenyl]Propanoic Acid]: 80 nM, 56 nM and more than 5 µM.
On to `O=C(O)CCc1ccc(OCC2=C(c3ccc(F)cc3)CCC2)c(F)c1` [Compound 49], for which the 50% effective concentration (EC50) at Human GPR120 short form was 136 nM; in test [1], 123 nM; on human GPR40 it was more than 5 µM.
For the molecule `Cc1c(CCC(=O)O)ccc(OCC2=C(c3ccccc3)CCC(F)(F)C2)c1C` [Compound 537, 3-[4-[(5,5-difluoro-2-phenyl-cyclohexen-1-yl)methoxy]-2,3-dimethyl-phenyl]Propanoic Acid], the values for the EC50 (on Human GPR120 short form; in test [1]; at human GPR40) were 83 nM, 161 nM and more than 5 µM, respectively.
For `COc1ncc(C2=C(COc3ccc(CCC(=O)O)c(C)c3C)CCC2)cc1F` [Compound 223, 3-[4-[[2-(5-fluoro-6-methoxy-3-pyridyl)cyclopenten-1-yl]methoxy]-2,3-dimethyl-phenyl]Propanoic Acid], the EC50 is 156 nM on Human GPR120 short form, 227 nM in test [1] and more than 5 µM at human GPR40.
`COc1cc(OCC2=C(c3ccc(Cl)cc3)CCC2)ccc1CCC(=O)O` [Compound 97, 3-[4-[[2-(4-chlorophenyl)cyclopenten-1-yl]methoxy]-2-methoxy-phenyl]Propanoic Acid]: the EC50 is 237 nM on Human GPR120 short form, 754 nM in test [1] and 0.834 µM at human GPR40.
`O=C(O)CCc1ccc(OCC2=C(c3ccc(Cl)cc3)CCC2)c(Cl)c1Cl` [Compound 99, 3-[2,3-dichloro-4-[[2-(4-chlorophenyl)cyclopenten-1-yl]methoxy]phenyl]Propanoic Acid]: the concentration for a half-maximal effect (EC50) on Human GPR120 short form was 44 nM; in test [1] it was 147 nM; on human GPR40, more than 5 µM.
Regarding `Cc1cc(CCC(=O)O)ccc1OCC1=C(c2ccc(F)c(F)c2)CC(F)(F)C1` [Compound 179, 3-[4-[[2-(3,4-difluorophenyl)-4,4-difluoro-cyclopenten-1-yl]methoxy]-3-methyl-phenyl]Propanoic Acid], the EC50 is 31 nM at Human GPR120 short form, 289 nM in test [1] and more than 5 µM at human GPR40.
